From patent US11306066B2, “4H-pyran compounds as insulin-regulated aminopeptidase (IRAP) inhibitors” (Monash University, priority 2015, dated 2022)
pIC50, pKi: −log10 of the molar value. Like-named read-outs stand apart in the source and are kept apart here.

Biological target: T1, recombinant IRAP (Homo sapiens, UniProt Q9UIQ6)
T1 construct: expressed in transfected cells; host or cells: HEK 293T
Test: IRAP enzymatic assay (hydrolysis of Leu-MCA)
Assay type: biochemical
Conditions: for pIC50: substrate Leu-MCA; for pKi: calculated from IC50, substrate Leu-MCA
Procedure: An in vitro enzymatic assay was used to initially assess IRAP inhibitory activity.
Crude membranes were prepared from HEK 293T cells transfected with IRAP or empty vector, then solubilized in buffer consisting of 50 mM Tris-HCl, 1% Triton X-100, pH 7.4 at 4° C. under agitation over 5 h. After solubilization, the membranes were pelleted by centrifugation at 23,100 g for 15 min at 4° C., and the supernatant was reserved as the source of IRAP activity. The enzymatic activities of recombinant IRAP were determined by the hydrolysis of the synthetic substrate Leu-MCA (Sigma-Aldrich, Missouri, USA) monitored by the release of a fluorogenic product, MCA, at excitation and emission wavelengths of 380 and 440 nm, respectively. Assays were performed in 96-well plates; each well contains between 0.2-10 μg solubilized membrane protein, a range of concentration of substrate in a final volume of 100 μL 50 mM Tris-HCl buffer (pH 7.4). Non-specific hydrolysis of the substrate was corrected by subtracting the emission from incubations with membranes transfected with empty vector. Reactions proceeded at 37° C. for 30 min within a thermostatted FLEX station fluorescence microplate reader (Molecular Devices, Sunnyvale, Calif.). The kinetic parameters (Km and V) were determined by non-linear fitting of the Michaelis-Menten equation (GraphPad Prism, GraphPad Software Inc., CA, USA); final concentrations of Leu-MCA of 15.6 μM-1 mM. Inhibitor constants (Ki) for the competitive inhibitors were calculated from the relationship IC50=[…], where IC50 values were determined over a range of inhibitor concentrations (10^−9 to 10^−4 M). Km values of IRAP for Leu-MCA were determined from the kinetic studies. Binding affinities of the compounds to IRAP were examined by monitoring the inhibition of the hydrolysis of Leu-MCA in the presence of increasing concentrations of the compounds (10^−8 to 10^−3 M). All data obtained were from at least three separate experiments performed in duplicate.
The results for some compounds of Formula (I) are set out below in Tables 2-1 to 2-8. The compounds were obtained commercially (Specs, Interbioscreen Ltd and Chembridge Corporation) or prepared according to the procedures outlined above.

T1 sequence (Q9UIQ6 whole entry): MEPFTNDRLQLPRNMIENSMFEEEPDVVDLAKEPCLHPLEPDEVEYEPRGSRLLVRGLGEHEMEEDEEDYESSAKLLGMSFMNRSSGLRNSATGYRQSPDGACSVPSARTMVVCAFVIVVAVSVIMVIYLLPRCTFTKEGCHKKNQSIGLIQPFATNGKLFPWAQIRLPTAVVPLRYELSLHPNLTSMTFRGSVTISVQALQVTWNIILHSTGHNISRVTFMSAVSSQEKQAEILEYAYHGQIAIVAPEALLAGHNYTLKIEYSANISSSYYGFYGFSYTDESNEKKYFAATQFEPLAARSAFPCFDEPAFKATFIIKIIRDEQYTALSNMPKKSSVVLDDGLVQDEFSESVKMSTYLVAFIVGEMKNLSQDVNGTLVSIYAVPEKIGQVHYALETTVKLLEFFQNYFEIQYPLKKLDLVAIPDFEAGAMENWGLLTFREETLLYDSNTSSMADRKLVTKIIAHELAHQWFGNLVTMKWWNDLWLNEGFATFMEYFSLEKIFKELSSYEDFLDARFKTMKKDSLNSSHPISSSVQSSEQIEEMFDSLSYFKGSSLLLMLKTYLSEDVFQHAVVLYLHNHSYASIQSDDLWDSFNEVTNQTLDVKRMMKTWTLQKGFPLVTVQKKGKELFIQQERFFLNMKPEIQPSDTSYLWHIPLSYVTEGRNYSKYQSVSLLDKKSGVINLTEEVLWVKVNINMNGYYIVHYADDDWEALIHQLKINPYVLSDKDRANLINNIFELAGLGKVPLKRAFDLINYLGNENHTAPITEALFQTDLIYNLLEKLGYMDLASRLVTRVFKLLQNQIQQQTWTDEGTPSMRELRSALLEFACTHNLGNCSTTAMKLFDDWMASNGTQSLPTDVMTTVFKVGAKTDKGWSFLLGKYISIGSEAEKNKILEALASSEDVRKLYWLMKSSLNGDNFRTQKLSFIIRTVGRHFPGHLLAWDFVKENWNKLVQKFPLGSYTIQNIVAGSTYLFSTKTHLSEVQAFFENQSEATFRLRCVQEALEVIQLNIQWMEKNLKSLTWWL

COC(=O)C1=C(C)OC(N)=C(C#N)C1c1ccc(O)cc1 (stereo not shown) [Compound 13c]
pIC50 (Table 2-3, read-out: IC50): < 4.00

CCOC(=O)C1=C(C)OC(N)=C(C#N)C1c1cnc2ccccc2c1 (stereo not shown) [Compound 11t, Ethyl 6-amino-5-cyano-2-methyl-4-(quinolin-3-yl)-4H-pyran-3-carboxylate]
pIC50 (Table 2-1, read-out: IC50): < 4.00

CCOC(=O)C1=C(C)OC(N)=C(C#N)C1c1cccc(C(=O)O)c1 (stereo not shown) [Compound 11m, 3-(2-Amino-3-cyano-5-(ethoxycarbonyl)-6-methyl-4H-pyran-4-yl)benzoic Acid]
pIC50 (Table 2-1, read-out: IC50): < 4.00

CCOC(=O)C1=C(C)OC(N)=C(C#N)C1c1ccc(O)c(OC)c1 (stereo not shown) [Compound 11b]
pKi (Table 2-1): 4.88 | pIC50 (Table 2-1, read-out: IC50): 4.66

CCOC(=O)C1=C(C)OC(N)=C(C#N)C1c1ccnc2ccccc12 (stereo not shown) [Compound 11u, Ethyl 6-amino-5-cyano-2-methyl-4-(quinolin-4-yl)-4H-pyran-3-carboxylate]
pIC50 (Table 2-1, read-out: IC50): < 4.00

CC(=O)C1=C(C)OC(N)=C(C#N)C1c1ccc(C(=O)O)cc1 (stereo not shown) [Compound 15a, 4-(3-Acetyl-6-amino-5-cyano-2-methyl-4H-pyran-4-yl)benzoic Acid]
pKi (Table 2-5): 5.74 | pIC50 (Table 2-5, read-out: IC50): 5.40 to 5.70

CCOC(=O)C1=C(C)OC(N)=C(C#N)C1c1cc(C)c(OC(C)=O)c(C)c1 (stereo not shown) [Compound 11o, Ethyl 4-(4-acetoxy-3,5-dimethylphenyl)-6-amino-5-cyano-2-methyl-4H-pyran-3-carboxylate]
pIC50 (Table 2-1, read-out: IC50): < 4.00

CC(=O)C1=C(C)OC(N)=C(C#N)C1c1cccc(C(=O)O)c1 (stereo not shown) [Compound 15b, 3-(3-Acetyl-6-amino-5-cyano-2-methyl-4H-pyran-4-yl)benzoic Acid]
pKi (Table 2-5): 5.41 | pIC50 (Table 2-5, read-out: IC50): 5.15 to 5.22

CCOC(=O)C1=C(C)OC(N)=C(C#N)C1c1ccc(OC(C)=O)c(C)c1 (stereo not shown) [Compound 11n, Ethyl 4-(4-acetoxy-3-methylphenyl)-6-amino-5-cyano-2-methyl-4H-pyran-3-carboxylate]
pIC50 (Table 2-1, read-out: IC50): < 4.00

CCOC(=O)C1=C(C)OC(N)=C(C#N)C1c1ccc(-c2ccccn2)cc1 (stereo not shown) [Compound 11p, Ethyl 6-amino-5-cyano-2-methyl-4-(4-(pyridin-2-yl)phenyl)-4H-pyran-3-carboxylate]
pIC50 (Table 2-1, read-out: IC50): < 4.00

CCOC(=O)C1=C(C)OC(N)=C(C#N)C1c1ccc(O)cc1 (stereo not shown) [Compound 11e]
pKi (Table 2-1): 4.21 | pIC50 (Table 2-1, read-out: IC50): 3.99

COc1cc(C2C(C#N)=C(N)Oc3cc(C)oc(=O)c32)cc(Br)c1O (stereo not shown) [Compound 18]
pIC50 (Table 2-8, read-out: IC50 μ): 4.40

CCOC(=O)C1=C(C)OC(N)=C(C#N)C1c1cc(Br)c(O)c(OC)c1 (stereo not shown) [Compound 11a]
pKi (Table 2-1): 4.86 | pIC50 (Table 2-1, read-out: IC50): 4.64

CCOC(=O)C1=C(C)OC(N)=C(C#N)C1c1ccc2c(c1)OCO2 (stereo not shown) [Compound 11g]
pIC50 (Table 2-1, read-out: IC50): < 4.30

CCOC(=O)C1=C(C)OC(N)=C(C#N)C1c1ccc2ccccc2n1 (stereo not shown) [Compound 11s, Ethyl 6-amino-5-cyano-2-methyl-4-(quinolin-2-yl)-4H-pyran-3-carboxylate]
pIC50 (Table 2-1, read-out: IC50): 4.40 to 5.52

COC(=O)c1ccc(C2C(C#N)=C(N)OC(C)=C2C(=O)OCc2ccccc2)cc1 (stereo not shown) [Compound 14c]
pIC50 (Table 2-4, read-out: IC50): 4.00 to 5.00

CCOC(=O)C1=C(C)OC(N)=C(C(=O)OCC)C1c1ccc(C(=O)O)cc1 (stereo not shown) [Compound 17a, 4-(2-Amino-3,5-bis(ethoxycarbonyl)-6-methyl-4H-pyran-4-yl)benzoic Acid]
pKi (Table 2-7): 5.38 | pIC50 (Table 2-7, read-out: IC50): 5.15

CC1=C(C(=O)OCc2ccccc2)C(c2ccc(C(=O)O)cc2)C(C#N)=C(N)O1 (stereo not shown) [Compound 14b, 4-(2-Amino-5-(benzyloxycarbonyl)-3-cyano-6-methyl-4H-pyran-4-yl)benzoic Acid]
pKi (Table 2-4): 5.52 | pIC50 (Table 2-4, read-out: IC50): 5.30

COc1cc(C2C(C#N)=C(N)OC(C)=C2C(C)=O)ccc1O (stereo not shown) [Compound 15c]
pKi (Table 2-5): 4.78 | pIC50 (Table 2-5, read-out: IC50): 4.55

CCOC(=O)C1=C(C)OC(N)=C(C#N)C1c1ccc(C(=O)O)cc1 (stereo not shown) [Compound 11k, 4-(2-Amino-3-cyano-5-(ethoxycarbonyl)-6-methyl-4H-pyran-4-yl)benzoic Acid]
pKi (Table 2-1): 4.74 | pIC50 (Table 2-1, read-out: IC50): 4.51

CC(=O)C1=C(C)OC(N)=C(C#N)C1c1ccc2ccccc2n1 (stereo not shown) [Compound 15i, 5-Acetyl-2-amino-6-methyl-4-(quinolin-2-yl)-4H-pyran-3-carbonitrile]
pKi (Table 2-5): 5.00 | pIC50 (Table 2-5, read-out: IC50): 4.77

CC(=O)C1=C(C)OC(N)=C(C#N)C1c1ccc2nccnc2c1 (stereo not shown) [Compound 15j, 5-Acetyl-2-amino-6-methyl-4-(quinoxalin-6-yl)-4H-pyran-3-carbonitrile]
pIC50 (Table 2-5, read-out: IC50): < 4.00

COC(=O)C1=C(C)OC(N)=C(C#N)C1c1ccc(O)c(OC)c1 (stereo not shown) [Compound 13d]
pKi (Table 2-3): 5.08 | pIC50 (Table 2-3, read-out: IC50): 4.85

CCOC(=O)C1=C(C)OC(N)=C(C#N)C1c1ccc(C#N)cc1 (stereo not shown) [Compound 11j]
pIC50 (Table 2-1, read-out: IC50): < 4.00

CCOC(=O)C1=C(CC)OC(N)=C(C#N)C1c1ccc(O)c(OCC)c1 (stereo not shown) [Compound 12c]
pKi (Table 2-2): 4.17 | pIC50 (Table 2-2, read-out: IC50): 3.95

CC(=O)C1=C(C)OC(N)=C(C#N)C1c1ccc(C#N)cc1 (stereo not shown) [Compound 15d]
pKi (Table 2-5): 4.23

CC(=O)NC1=C(C#N)C(c2ccc(C(=O)O)cc2)C(C(C)=O)=C(C)O1 (stereo not shown) [Compound 16, 4-(2-Acetamido-5-acetyl-3-cyano-6-methyl-4H-pyran-4-yl)benzoic Acid]
pKi (Table 2-6): 5.38

CCOC(=O)C1=C(C)OC(N)=C(C#N)C1c1cccnc1 (stereo not shown) [Compound 11q]
pIC50 (Table 2-1, read-out: IC50): < 4.30

CCOC(=O)C1=C(C)OC(N)=C(C#N)C1c1ccncc1 (stereo not shown) [Compound 11r]
pIC50 (Table 2-1, read-out: IC50): < 4.00

CC1=C(C(=O)OCc2ccccc2)C(c2ccc(C#N)cc2)C(C#N)=C(N)O1 (stereo not shown) [Compound 14d, Benzyl 6-amino-5-cyano-4-(4-cyanophenyl)-2-methyl-4H-pyran-3-carboxylate]
pIC50 (Table 2-4, read-out: IC50): < 4.00

COC(=O)C1=C(C)OC(N)=C(C#N)C1c1ccc(C(=O)O)cc1 (stereo not shown) [Compound 13b, 4-(2-Amino-3-cyano-5-(methoxycarbonyl)-6-methyl-4H-pyran-4-yl)benzoic Acid]
pKi (Table 2-3): 5.08 | pIC50 (Table 2-3, read-out: IC50): 4.85

CCOC(=O)C1=C(C)OC(N)=C(C#N)C1c1cc(OC)c2c(c1)OCO2 (stereo not shown) [Compound 11h]
pKi (Table 2-1): 4.43 | pIC50 (Table 2-1, read-out: IC50): 4.20

CCOC(=O)C1=C(C)OC(N)=C(C#N)C1c1ccc(OC)c(OC)c1 (stereo not shown) [Compound 11i]
pIC50 (Table 2-1, read-out: IC50): < 4.30

CCOC(=O)C1=C(CC)OC(N)=C(C#N)C1c1ccc(O)c(OC)c1 (stereo not shown) [Compound 12a]
pKi (Table 2-2): 4.07 | pIC50 (Table 2-2, read-out: IC50): 3.84

CCOC(=O)C1=C(C)OC(N)=C(C#N)C1c1ccc([N+](=O)[O-])cc1 (stereo not shown) [Compound 11l]
pIC50 (Table 2-1, read-out: IC50): < 4.00

COc1ccc(C2C(C#N)=C(N)OC(C)=C2C(=O)OCc2ccccc2)cc1OC (stereo not shown) [Compound 14a]
pKi (Table 2-4): 4.78 | pIC50 (Table 2-4, read-out: IC50): 4.55
